Measurements reported in the supplement of paper PMC12463676, “Small-molecule dissolution of stress granules by redox modulation benefits ALS models” (Nature Chemical Biology, 2025).

Legend:
potassium arsenate = compound: O=[As]([O-])(O)O.[K+] [potassium arsenate]; test: thermal stability z-score vs DMSO; higher = more thermally stabilized by treatment; details: HeLa; arsenate concentration 1 mM
Experimental: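 Cellular thermal proteome profiling in HeLa cells treated with 1 mM arsenate for 1 h (DMSO pretreatment), heated to ten temperatures (37-66.3 °C). Soluble protein was quantified by TMT mass spectrometry relative to DMSO controls; the thermal stability score was transformed to a z-score; mean of n = 3 experiments.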

lipoamide = compound: NC(=O)CCCCC1CCSS1 [lipoamide]; test: as above; details: HeLa, lipoamide concentration 100 µM
Experimental: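 Cellular thermal proteome profiling in HeLa cells. Cells were treated with 100 µM lipoamide for 1 h, with or without 1 mM arsenate for a further 1 h, then heated to ten temperatures (37-66.3 °C), and soluble protein was quantified by TMT mass spectrometry relative to 0.1% DMSO controls. The thermal stability score (sum of log2 fold changes minus the abundance score) was transformed to a z-score; mean of n = 3 experiments.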

[1] = arsenate co-treatment: 1 mM arsenate 1 h
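Note: each temperature applied for 3 min, abundance score taken as mean log2 fold change at the two lowest temperatures, z-score obtained by mean subtraction and division by SD.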

Sequence of UniProt A6NKD9 (A6NKD9 whole entry): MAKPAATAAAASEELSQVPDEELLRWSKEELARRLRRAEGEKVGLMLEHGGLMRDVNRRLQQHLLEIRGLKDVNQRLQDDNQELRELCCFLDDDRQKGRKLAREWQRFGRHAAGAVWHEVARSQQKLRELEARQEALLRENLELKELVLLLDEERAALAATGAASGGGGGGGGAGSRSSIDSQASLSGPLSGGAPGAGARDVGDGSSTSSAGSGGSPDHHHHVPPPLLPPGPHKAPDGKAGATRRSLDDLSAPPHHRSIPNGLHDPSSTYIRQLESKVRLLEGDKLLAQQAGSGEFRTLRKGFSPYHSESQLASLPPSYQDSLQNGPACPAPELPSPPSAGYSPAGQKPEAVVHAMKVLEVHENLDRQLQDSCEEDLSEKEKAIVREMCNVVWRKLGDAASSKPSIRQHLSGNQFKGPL
Sequence of UniProt Q567U6 (Q567U6 whole entry): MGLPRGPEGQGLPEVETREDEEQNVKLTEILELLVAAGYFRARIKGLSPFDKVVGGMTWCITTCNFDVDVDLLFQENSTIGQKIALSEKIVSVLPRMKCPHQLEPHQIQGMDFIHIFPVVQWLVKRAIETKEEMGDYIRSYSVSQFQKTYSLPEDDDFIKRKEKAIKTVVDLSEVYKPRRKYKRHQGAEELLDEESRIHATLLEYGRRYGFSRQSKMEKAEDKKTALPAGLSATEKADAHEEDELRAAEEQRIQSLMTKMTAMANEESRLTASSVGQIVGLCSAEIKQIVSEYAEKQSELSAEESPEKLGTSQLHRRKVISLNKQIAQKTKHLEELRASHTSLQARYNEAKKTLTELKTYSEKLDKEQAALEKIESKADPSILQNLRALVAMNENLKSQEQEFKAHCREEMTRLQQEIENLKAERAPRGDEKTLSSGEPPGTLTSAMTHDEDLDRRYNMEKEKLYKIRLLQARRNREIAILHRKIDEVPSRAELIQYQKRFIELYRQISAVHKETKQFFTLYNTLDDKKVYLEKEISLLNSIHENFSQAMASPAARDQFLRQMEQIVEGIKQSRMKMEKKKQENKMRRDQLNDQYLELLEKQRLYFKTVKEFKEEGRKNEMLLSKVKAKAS
Sequence of UniProt Q9H6F5 (Q9H6F5 whole entry): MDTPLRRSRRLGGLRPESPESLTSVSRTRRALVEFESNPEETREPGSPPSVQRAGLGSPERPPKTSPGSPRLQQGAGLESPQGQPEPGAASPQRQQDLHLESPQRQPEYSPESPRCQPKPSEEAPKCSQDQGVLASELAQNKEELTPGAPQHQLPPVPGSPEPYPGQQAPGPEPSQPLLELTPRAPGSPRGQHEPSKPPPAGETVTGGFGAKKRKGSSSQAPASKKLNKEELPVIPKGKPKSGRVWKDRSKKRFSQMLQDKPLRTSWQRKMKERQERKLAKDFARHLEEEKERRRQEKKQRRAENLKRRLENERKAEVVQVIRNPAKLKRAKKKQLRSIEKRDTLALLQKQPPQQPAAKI
Sequence of UniProt Q7Z6B0 (Q7Z6B0 whole entry): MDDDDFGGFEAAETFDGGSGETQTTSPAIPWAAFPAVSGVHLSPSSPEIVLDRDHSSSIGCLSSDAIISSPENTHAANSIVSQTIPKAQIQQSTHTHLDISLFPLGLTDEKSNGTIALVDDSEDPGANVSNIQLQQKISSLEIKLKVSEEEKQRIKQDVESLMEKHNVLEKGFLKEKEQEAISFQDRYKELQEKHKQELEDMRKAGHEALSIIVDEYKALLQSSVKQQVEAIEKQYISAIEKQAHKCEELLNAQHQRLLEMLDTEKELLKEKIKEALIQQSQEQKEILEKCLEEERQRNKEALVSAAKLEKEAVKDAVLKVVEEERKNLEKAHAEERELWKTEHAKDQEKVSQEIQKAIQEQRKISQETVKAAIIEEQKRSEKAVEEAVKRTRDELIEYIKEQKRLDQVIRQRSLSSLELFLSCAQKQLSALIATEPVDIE
Sequence of UniProt Q96ER9 (Q96ER9 whole entry): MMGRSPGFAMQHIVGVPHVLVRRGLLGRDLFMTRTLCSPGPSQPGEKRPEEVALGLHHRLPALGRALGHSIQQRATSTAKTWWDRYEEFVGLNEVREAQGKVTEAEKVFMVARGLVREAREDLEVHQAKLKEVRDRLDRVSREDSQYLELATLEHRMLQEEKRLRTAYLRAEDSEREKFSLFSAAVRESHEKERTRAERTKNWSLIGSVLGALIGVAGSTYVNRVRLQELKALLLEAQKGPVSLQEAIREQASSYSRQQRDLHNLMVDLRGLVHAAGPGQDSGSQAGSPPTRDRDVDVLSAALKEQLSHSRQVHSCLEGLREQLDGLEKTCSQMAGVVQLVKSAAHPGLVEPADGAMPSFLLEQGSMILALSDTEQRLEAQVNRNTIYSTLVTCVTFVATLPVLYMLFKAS
Sequence of UniProt Q96F63 (Q96F63 whole entry): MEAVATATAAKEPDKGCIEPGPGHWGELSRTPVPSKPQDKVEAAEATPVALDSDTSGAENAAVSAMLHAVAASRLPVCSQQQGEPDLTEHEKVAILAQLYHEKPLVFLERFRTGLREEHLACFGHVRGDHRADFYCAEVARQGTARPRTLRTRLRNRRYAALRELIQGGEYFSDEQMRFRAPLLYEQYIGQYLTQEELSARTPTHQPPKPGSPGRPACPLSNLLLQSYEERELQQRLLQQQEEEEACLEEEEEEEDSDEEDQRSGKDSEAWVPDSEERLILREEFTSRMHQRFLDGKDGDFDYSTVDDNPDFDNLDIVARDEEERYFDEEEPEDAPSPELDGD
Sequence of UniProt Q96MW1 (Q96MW1 whole entry): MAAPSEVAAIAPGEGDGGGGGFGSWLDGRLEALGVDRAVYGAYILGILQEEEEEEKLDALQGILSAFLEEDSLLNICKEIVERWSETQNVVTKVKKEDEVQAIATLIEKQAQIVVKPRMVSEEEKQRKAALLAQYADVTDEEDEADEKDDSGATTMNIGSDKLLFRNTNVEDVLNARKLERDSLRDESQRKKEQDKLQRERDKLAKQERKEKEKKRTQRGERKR
Sequence of UniProt Q15834 (Q15834 whole entry): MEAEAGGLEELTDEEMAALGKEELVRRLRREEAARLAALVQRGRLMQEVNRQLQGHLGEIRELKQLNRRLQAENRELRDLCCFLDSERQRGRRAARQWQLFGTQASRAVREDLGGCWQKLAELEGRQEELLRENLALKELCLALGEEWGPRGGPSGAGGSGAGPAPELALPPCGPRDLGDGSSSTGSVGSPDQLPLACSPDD
Sequence of UniProt O60826 (O60826 whole entry): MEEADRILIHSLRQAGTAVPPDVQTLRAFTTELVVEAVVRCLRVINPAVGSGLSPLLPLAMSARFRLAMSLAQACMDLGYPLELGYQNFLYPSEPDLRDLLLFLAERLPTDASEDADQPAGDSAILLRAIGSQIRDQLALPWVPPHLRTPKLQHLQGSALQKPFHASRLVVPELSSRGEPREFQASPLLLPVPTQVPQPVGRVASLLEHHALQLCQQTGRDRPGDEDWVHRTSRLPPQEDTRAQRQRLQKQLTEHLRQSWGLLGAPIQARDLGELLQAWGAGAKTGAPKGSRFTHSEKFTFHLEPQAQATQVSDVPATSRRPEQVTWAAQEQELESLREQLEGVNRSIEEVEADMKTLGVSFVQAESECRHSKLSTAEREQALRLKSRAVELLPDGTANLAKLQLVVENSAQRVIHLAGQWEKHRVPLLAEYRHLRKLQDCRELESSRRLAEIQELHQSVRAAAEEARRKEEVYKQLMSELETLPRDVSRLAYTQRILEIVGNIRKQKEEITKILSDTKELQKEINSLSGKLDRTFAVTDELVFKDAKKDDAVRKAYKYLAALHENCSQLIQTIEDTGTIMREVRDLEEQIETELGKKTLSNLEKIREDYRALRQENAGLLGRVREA
Sequence of UniProt Q96NT0 (Q96NT0 whole entry): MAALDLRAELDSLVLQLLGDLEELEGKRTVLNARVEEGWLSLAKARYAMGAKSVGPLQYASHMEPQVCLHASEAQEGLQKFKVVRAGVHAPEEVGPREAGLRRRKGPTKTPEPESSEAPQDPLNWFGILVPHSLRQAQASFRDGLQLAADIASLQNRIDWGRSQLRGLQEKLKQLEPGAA
Sequence of UniProt Q96BQ5 (Q96BQ5 whole entry): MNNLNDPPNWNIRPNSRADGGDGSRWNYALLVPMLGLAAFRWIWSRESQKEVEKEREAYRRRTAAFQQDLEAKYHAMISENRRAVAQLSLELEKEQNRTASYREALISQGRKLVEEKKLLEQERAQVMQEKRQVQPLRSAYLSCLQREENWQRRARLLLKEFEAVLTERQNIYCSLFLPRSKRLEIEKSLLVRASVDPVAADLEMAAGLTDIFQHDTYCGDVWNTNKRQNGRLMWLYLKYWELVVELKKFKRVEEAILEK
Sequence of UniProt Q8IWD4 (Q8IWD4 whole entry): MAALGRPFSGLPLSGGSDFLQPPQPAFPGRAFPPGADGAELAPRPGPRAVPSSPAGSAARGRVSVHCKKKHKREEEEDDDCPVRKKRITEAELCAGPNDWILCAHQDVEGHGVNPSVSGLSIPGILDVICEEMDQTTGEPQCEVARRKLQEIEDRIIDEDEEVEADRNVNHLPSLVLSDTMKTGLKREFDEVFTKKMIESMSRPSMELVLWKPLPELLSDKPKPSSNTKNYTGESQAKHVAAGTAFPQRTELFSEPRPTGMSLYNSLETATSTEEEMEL
Sequence of UniProt Q86WR0 (Q86WR0 whole entry): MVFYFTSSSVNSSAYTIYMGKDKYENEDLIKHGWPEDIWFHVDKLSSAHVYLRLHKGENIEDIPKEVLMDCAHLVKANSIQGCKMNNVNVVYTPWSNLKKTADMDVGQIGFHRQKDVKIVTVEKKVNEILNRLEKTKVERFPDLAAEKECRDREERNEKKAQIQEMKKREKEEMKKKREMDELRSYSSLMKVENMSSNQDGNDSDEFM
Sequence of UniProt Q96CT7 (Q96CT7 whole entry): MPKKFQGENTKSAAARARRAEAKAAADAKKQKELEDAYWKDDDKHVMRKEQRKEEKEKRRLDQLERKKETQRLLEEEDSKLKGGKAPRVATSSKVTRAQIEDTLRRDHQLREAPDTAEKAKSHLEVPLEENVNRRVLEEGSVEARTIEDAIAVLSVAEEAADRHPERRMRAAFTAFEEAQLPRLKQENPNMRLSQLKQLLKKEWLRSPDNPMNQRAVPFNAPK

| Target | thermal stability z-score (potassium arsenate) | thermal stability z-score (lipoamide; [1]) | thermal stability z-score (lipoamide; arsenate co-treatment: none) |
| --- | --- | --- | --- |
| CCDC22 (UniProt O60826) | 0.0749 | -0.152 | -0.59 |
| CCDC25 (UniProt Q86WR0) | 0.439 | 0.415 | 0.668 |
| CCDC43 (UniProt Q96MW1) | 0.864 | 0.776 | 0.412 |
| CCDC47 (UniProt Q96A33) | -1.21 | -0.4 | -0.332 |
| CCDC50 (UniProt Q8IVM0) | -0.0338 | 0.557 | 0.248 |
| CCDC51 (UniProt Q96ER9) | -0.324 | -0.68 | -0.14 |
| CCDC53 (UniProt Q9Y3C0) | -0.495 | -0.425 | -1.22 |
| CCDC58 (UniProt Q4VC31) | 0.303 | 0.552 | 0.284 |
| CCDC59 (UniProt Q9P031) | 1.06 | -0.52 | -0.816 |
| CCDC85B (UniProt Q15834) | 0.125 | 0.574 | 0.223 |
| CCDC85C (UniProt A6NKD9) | -0.0463 | 0.0231 | 0.186 |
| CCDC86 (UniProt Q9H6F5) | -2.01 | -0.342 | -0.895 |
| CCDC88A (UniProt Q3V6T2) | 1.3 | 1.49 | 0.586 |
| CCDC90B (UniProt Q9GZT6) | 0.136 | 0.364 | 0.229 |
| CCDC91 (UniProt Q7Z6B0) | 1.21 | 0.136 | 0.181 |
| CCDC93 (UniProt Q567U6) | 0.0272 | -0.728 | -0.078 |
| CCDC94 (UniProt Q9BW85) | -0.951 | -0.377 | -0.352 |
| CCDC97 (UniProt Q96F63) | -0.925 | -0.00687 | 0.225 |
| CCDC102A (UniProt Q96A19) | -0.327 | -0.156 | -0.283 |
| CCDC115 (UniProt Q96NT0) | -0.392 | 0.112 | 0.611 |
| CCDC117 (UniProt Q8IWD4) | -0.388 | -0.191 | -0.317 |
| CCDC124 (UniProt Q96CT7) | -0.605 | 0.0112 | -0.0241 |
| CCDC127 (UniProt Q96BQ5) | -0.192 | -0.707 | -0.371 |
| CCDC134 (UniProt Q9H6E4) | -0.0932 | -2.13 | -1.37 |
| CCDC137 (UniProt Q6PK04) | -1.66 | -0.531 | -0.941 |
| CCDC167 (UniProt Q9P0B6) | 0.0429 | -0.711 | -1.16 |
| CCDC174 (UniProt Q6PII3) | -0.984 | -0.407 | -0.734 |
